The numbers were not newly measured in patent publication US12016851B2, “Modified release pharmaceutical formulations comprising deferiprone” (Chiesi Farmaceutici S.p.A., priority 2022, dated 2024), which cites them from elsewhere.

For data set [1] the following is noted: in vivo.
For data set [2] the following is noted: monotherapy; Maggio 2002, Galanello 2006.

As a reminder, the half-life is the time needed for the level to fall by half in the phase considered. On to `Cc1c(O)c(=O)ccn1C` [Deferiprone, 3-hydroxy-1,2-dimethylpyridin-4-one], for which the half-life in data set [1] was 2 to 3 h. In addition, in data set [2], the “improving myocardial siderosis and cardiac function” value was “superior to deferoxamine monotherapy”.
